Consider 14 molecules from patent US11236129B2, “IL-17A binding peptides and medical uses thereof” (Dompe' Farmaceutici S.P.A., priority 2018, dated 2022).

Structures are written as SMILES. Residues, ends and D or L forms follow the SMILES beside them.

The test deals with IL-17RA/IL17RC dimerization induced by IL-17A (Homo sapiens, UniProt Q16552). The test is described as follows: IL-17RA/IL17RC dimerization assay in response to IL-17A (PathHunter Cytokine Receptor Assay). In kind it is cell-based. The following applies: IL-17A at EC80; read-out: IC50 in IL-17RA/IL7RC dimerization assay. How it is done: The peptides of Table 7 were tested for their ability to inhibit the binding of IL-17A to its receptor and the subsequent interaction of IL-17RA and IL17RC.
IL-17RA/IL17RC dimerization induced by IL-17A, sequence (Q16552 24-155): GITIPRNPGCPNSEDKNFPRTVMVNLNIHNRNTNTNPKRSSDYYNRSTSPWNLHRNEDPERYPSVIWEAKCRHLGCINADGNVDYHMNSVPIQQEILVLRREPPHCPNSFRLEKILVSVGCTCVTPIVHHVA
Interleukin receptor RA and RC dimerization assay (DiscoverX) was used to measure the interaction of the receptor chains IL-17RA and IL17RC upon activation by IL-17A in the absence or presence of the peptides of Table 7.
In the PathHunter® Cytokine Receptor Assay, one cytokine receptor chain is tagged with a small peptide epitope ProLink (PK) and the other chain is tagged with Enzyme Acceptor (EA). Ligand binding induces dimerization of the two receptors, facilitating complementation of PK and EA fragments. This interaction generates an active unit of b-galactosidase, which is detected using a chemiluminescent substrate. PathHunter cell lines were expanded from freezer stocks according to standard procedures. Cells were seeded in a total volume of 20 μL into white walled, 384-well microplates and incubated for the appropriate time prior to testing. For agonist activity inhibition, cells were incubated with sample to induce response. Intermediate dilution of sample stocks was performed to generate 5× sample in assay buffer. 5 μL of 5× sample was added to cells and incubated at 37° C. or room temperature for 60 minutes. Vehicle concentration was 1%. 5 μL of 6×EC80 agonist (IL-17A) in assay buffer was added to the cells and incubated at 37° C. for 6 to 16 hours depending on the assay. 1. […] For some assays, activity was detected using a high sensitivity detection reagent (PathHunter Flash Kit) to improve assay performance. In these assays, an equal volume of detection reagent (25 or 30 uL) was added to the wells, followed by a one hour incubation at room temperature. Microplates were read following signal generation with a PerkinElmer Envision™ instrument for chemiluminescent signal detection. Compound activity was analyzed using CBIS data analysis suite (ChemInnovation, CA). % Inhibition=100%×(1−(mean RLU of test sample−mean RLU of vehicle control)/(mean RLU of EC80 control−mean RLU of vehicle control)).

As to `CC(=O)N[C@H](C(=O)N[C@@H](Cc1c[nH]cn1)C(=O)N[C@H](C(=O)N[C@H](C(=O)N[C@H](C(=O)N1CCC[C@H]1C(=O)N[C@@H](CCC(N)=O)C(=O)N[C@@H](CCC(=O)O)C(=O)N[C@@H](CC(C)C)C(=O)N[C@@H](Cc1ccc(O)cc1)C(=O)N[C@@H](CCC(=O)O)C(=O)N[C@@H](Cc1c[nH]c2ccccc12)C(=O)N[C@H](C(=O)N[C@@H](CCCNC(=N)N)C(=O)N[C@@H](CCCNC(=N)N)C(N)=O)C(C)C)C(C)C)[C@@H](C)O)C(C)C)C(C)C` [SEQ ID NO: 226] (Ac-VHVTVPQELYEWVRR-NH2), the IC50 was less than 10 µM.

Take `CC[C@H](C)[C@H](NC(C)=O)C(=O)N[C@@H](Cc1c[nH]cn1)C(=O)N[C@H](C(=O)N[C@H](C(=O)N[C@H](C(=O)N[C@H](C(=O)N[C@@H](C)C(=O)N[C@@H](CC(=O)O)C(=O)N[C@@H](CC(C)C)C(=O)N[C@@H](Cc1c[nH]c2ccccc12)C(=O)N[C@@H](CC(=O)O)C(=O)N[C@@H](Cc1c[nH]c2ccccc12)C(=O)N[C@H](C(=O)N[C@@H](CC(N)=O)C(=O)N[C@@H](CCCCN)C(N)=O)[C@@H](C)CC)C(C)C)[C@@H](C)CC)[C@@H](C)O)C(C)C` [SEQ ID NO: 189] (Ac-IHVTIVADLWDWINK-NH2): the IC50 is less than 10 µM.

On to `CC[C@H](C)[C@H](NC(=O)[C@H](CCC(N)=O)NC(=O)[C@H](Cc1ccccc1)NC(=O)[C@H](Cc1c[nH]cn1)NC(=O)[C@@H](NC(C)=O)C(C)C)C(=O)N1CCC[C@H]1C(=O)N[C@@H](CCC(N)=O)C(=O)N[C@@H](CC(=O)O)C(=O)N[C@@H](CC(C)C)C(=O)N[C@@H](Cc1ccc(O)cc1)C(=O)N[C@@H](CC(N)=O)C(=O)N[C@@H](Cc1ccccc1)C(=O)N[C@@H](Cc1ccccc1)C(=O)N[C@@H](CCCNC(=N)N)C(=O)N[C@@H](CCCNC(=N)N)C(N)=O` [SEQ ID NO: 153] (Ac-VHFQIPQDLYNFFRR-NH2), for which the IC50 was less than 0.5 µM.

Consider `CC[C@H](C)[C@H](NC(=O)[C@@H](NC(=O)[C@@H](NC(=O)[C@H](Cc1c[nH]cn1)NC(=O)[C@@H](NC(C)=O)C(C)C)C(C)C)[C@@H](C)O)C(=O)N1CCC[C@H]1C(=O)N[C@@H](C)C(=O)N[C@@H](CC(=O)O)C(=O)N[C@@H](CC(C)C)C(=O)N[C@@H](Cc1c[nH]c2ccccc12)C(=O)N[C@@H](CCC(=O)O)C(=O)N[C@@H](Cc1ccccc1)C(=O)N[C@H](C(=O)N[C@@H](CCCNC(=N)N)C(=O)N[C@@H](CCCNC(=N)N)C(N)=O)C(C)C` [SEQ ID NO: 120] (Ac-VHVTIPADLWEFVRR-NH2), for which the IC50 is less than 0.5 µM.

On to `CC[C@H](C)[C@H](NC(=O)[C@@H](NC(=O)[C@@H](NC(=O)[C@H](Cc1c[nH]cn1)NC(=O)[C@@H](NC(C)=O)C(C)C)C(C)C)[C@@H](C)O)C(=O)N1CCC[C@H]1C(=O)N[C@@H](C)C(=O)N[C@@H](CCC(=O)O)C(=O)N[C@@H](Cc1c[nH]c2ccccc12)C(=O)N[C@@H](Cc1c[nH]c2ccccc12)C(=O)N[C@@H](CCC(=O)O)C(=O)N[C@@H](Cc1c[nH]c2ccccc12)C(=O)N[C@H](C(=O)N[C@@H](CCCNC(=N)N)C(=O)N[C@@H](CCCNC(=N)N)C(N)=O)C(C)C` [SEQ ID NO: 123] (Ac-VHVTIPAEWWEWVRR-NH2), for which the IC50 was less than 0.5 µM.

Take `CC[C@H](C)[C@H](NC(C)=O)C(=O)N[C@@H](CCC(=O)O)C(=O)N[C@H](C(=O)N[C@H](C(=O)N[C@H](C(=O)N1CCC[C@H]1C(=O)N[C@@H](C)C(=O)N[C@@H](CC(=O)O)C(=O)N[C@@H](CC(C)C)C(=O)N[C@@H](Cc1c[nH]c2ccccc12)C(=O)N[C@@H](CC(=O)O)C(=O)N[C@@H](Cc1c[nH]c2ccccc12)C(=O)N[C@H](C(=O)N[C@@H](CC(N)=O)C(=O)N[C@@H](CCCCN)C(N)=O)[C@@H](C)CC)[C@@H](C)CC)[C@@H](C)O)C(C)C` [SEQ ID NO: 164] (Ac-IEVTIPADLWDWINK-NH2): the IC50 was less than 10 µM.

`CC(=O)N[C@H](C(=O)N[C@@H](CCC(=O)O)C(=O)N[C@@H](Cc1ccccc1)C(=O)N[C@@H](CC(N)=O)C(=O)N[C@@H](Cc1ccccc1)C(=O)N1CCC[C@H]1C(=O)N[C@@H](CCC(N)=O)C(=O)N[C@@H](CCC(N)=O)C(=O)N[C@H](C(=O)N[C@@H](Cc1ccc(O)cc1)C(=O)N[C@@H](CCC(=O)O)C(=O)N[C@@H](Cc1c[nH]c2ccccc12)C(=O)N[C@H](C(=O)N[C@@H](CCCNC(=N)N)C(=O)N[C@@H](CCCNC(=N)N)C(N)=O)C(C)C)C(C)C)C(C)C` [SEQ ID NO: 256] (Ac-VEFNFPQQVYEWVRR-NH2): the IC50 is less than 10 µM.

Take `CC[C@H](C)[C@H](NC(C)=O)C(=O)N[C@@H](Cc1c[nH]cn1)C(=O)N[C@H](C(=O)N[C@H](C(=O)N[C@H](C(=O)N[C@@H](CC(C)C)C(=O)N[C@@H](C)C(=O)N[C@@H](CC(=O)O)C(=O)N[C@@H](CC(C)C)C(=O)N[C@@H](Cc1c[nH]c2ccccc12)C(=O)N[C@@H](CC(=O)O)C(=O)N[C@@H](Cc1c[nH]c2ccccc12)C(=O)N[C@H](C(=O)N[C@@H](CC(N)=O)C(=O)N[C@@H](CCCCN)C(N)=O)[C@@H](C)CC)[C@@H](C)CC)[C@@H](C)O)C(C)C` [SEQ ID NO: 188] (Ac-IHVTILADLWDWINK-NH2): the IC50 was less than 10 µM.

For the molecule `CC(=O)N[C@H](C(=O)N[C@@H](Cc1c[nH]cn1)C(=O)N[C@@H](Cc1ccccc1)C(=O)N[C@@H](CCC(N)=O)C(=O)N[C@@H](Cc1ccccc1)C(=O)N1CCC[C@H]1C(=O)N[C@@H](CCC(N)=O)C(=O)N[C@@H](CC(=O)O)C(=O)N[C@@H](Cc1c[nH]c2ccccc12)C(=O)N[C@@H](Cc1c[nH]c2ccccc12)C(=O)N[C@@H](CCC(=O)O)C(=O)N[C@@H](Cc1c[nH]c2ccccc12)C(=O)N[C@@H](Cc1ccccc1)C(=O)N[C@@H](CCCNC(=N)N)C(=O)N[C@@H](CCCNC(=N)N)C(N)=O)C(C)C` [SEQ ID NO: 141] (Ac-VHFQFPQDWWEWFRR-NH2), the IC50 is less than 0.5 µM.

As to `CC[C@H](C)[C@H](NC(=O)[C@H](Cc1c[nH]c2ccccc12)NC(=O)[C@H](CC(=O)O)NC(=O)[C@H](Cc1c[nH]c2ccccc12)NC(=O)[C@H](CC(C)C)NC(=O)[C@H](CC(=O)O)NC(=O)[C@H](C)NC(=O)[C@@H]1CCCN1C(=O)[C@@H](NC(=O)[C@H](Cc1ccc(O)cc1)NC(=O)[C@H](C)NC(=O)[C@H](CCCNC(=N)N)NC(=O)[C@@H](NC(C)=O)C(C)C)C(C)C)C(=O)N[C@@H](CC(N)=O)C(=O)N[C@@H](CCCCN)C(N)=O` [SEQ ID NO: 243] (Ac-VRAYVPADLWDWINK-NH2), the IC50 is less than 10 µM.

Turning to `CC[C@H](C)[C@H](NC(=O)[C@H](Cc1c[nH]c2ccccc12)NC(=O)[C@H](CC(=O)O)NC(=O)[C@H](Cc1c[nH]c2ccccc12)NC(=O)[C@H](CC(C)C)NC(=O)[C@H](CC(=O)O)NC(=O)[C@H](C)NC(=O)[C@@H]1CCCN1C(=O)[C@@H](NC(=O)[C@@H](NC(=O)[C@@H](NC(=O)[C@H](Cc1c[nH]cn1)NC(=O)CNC(C)=O)C(C)C)[C@@H](C)O)[C@@H](C)CC)C(=O)N[C@@H](CC(N)=O)C(=O)N[C@@H](CCCCN)C(N)=O` [SEQ ID NO: 159] (Ac-GHVTIPADLWDWINK-NH2), the IC50 was less than 10 µM.

Turning to `CC(=O)N[C@H](C(=O)N[C@@H](Cc1c[nH]cn1)C(=O)N[C@@H](Cc1ccccc1)C(=O)N[C@H](C(=O)N[C@H](C(=O)N1CCC[C@H]1C(=O)N[C@@H](CCC(N)=O)C(=O)N[C@@H](CCC(=O)O)C(=O)N[C@@H](CC(C)C)C(=O)N[C@@H](Cc1ccc(O)cc1)C(=O)N[C@@H](CCC(=O)O)C(=O)N[C@@H](Cc1c[nH]c2ccccc12)C(=O)N[C@H](C(=O)N[C@@H](CCCNC(=N)N)C(=O)N[C@@H](CCCNC(=N)N)C(N)=O)C(C)C)C(C)C)[C@@H](C)O)C(C)C` [SEQ ID NO: 238] (Ac-VHFTVPQELYEWVRR-NH2), the IC50 was less than 10 µM.

As for `CC[C@H](C)[C@H](NC(=O)[C@@H](NC(=O)[C@H](Cc1ccccc1)NC(=O)[C@H](Cc1c[nH]cn1)NC(=O)[C@@H](NC(C)=O)C(C)C)[C@@H](C)O)C(=O)N1CCC[C@H]1C(=O)N[C@@H](C)C(=O)N[C@@H](CC(=O)O)C(=O)N[C@@H](Cc1ccccc1)C(=O)N[C@@H](Cc1c[nH]c2ccccc12)C(=O)N[C@@H](CCC(=O)O)C(=O)N[C@@H](Cc1c[nH]c2ccccc12)C(=O)N[C@@H](Cc1ccccc1)C(=O)N[C@@H](CCCNC(=N)N)C(=O)N[C@@H](CCCNC(=N)N)C(N)=O` [SEQ ID NO: 142] (Ac-VHFTIPADFWEWFRR-NH2), the IC50 is less than 0.5 µM.

Turning to `CCCCCCCCCC(=O)N[C@H](C(=O)N[C@@H](CCSC)C(=O)N[C@H](C(=O)N[C@H](C(=O)N[C@H](C(=O)N1CCC[C@H]1C(=O)N[C@@H](C)C(=O)N[C@@H](CC(=O)O)C(=O)N[C@@H](CC(C)C)C(=O)N[C@@H](Cc1ccc(O)cc1)C(=O)N[C@@H](CCC(=O)O)C(=O)N[C@@H](Cc1c[nH]c2ccccc12)C(=O)N[C@H](C(=O)N[C@@H](CCC(=O)O)C(=O)N[C@@H](CCC(=O)O)C(N)=O)[C@@H](C)CC)[C@@H](C)CC)[C@@H](C)O)C(C)C)[C@@H](C)CC` [BIO-4], the IC50 is less than 1 µM.
